Literature values, collected in patent publication US7956061B2, “Bicyclic pyrimidines as dipeptidyl peptidase-IV inhibitors for the treatment or prevention of diabetes” (Merck Sharp & Dohme Corp., priority 2005, dated 2011).

Experiments:
cardiac allograft = conditions: rats; Transplantation, 63: 1495-1500 (1997)
DPP-IV = target: T1, DPP-IV (Homo sapiens, UniProt P27487); conditions: plasma
T1 construct: GRF is rapidly degraded in plasma to GRF[3-44]

hematopoiesis = conditions: mouse, cyclophosphamide-induced neutropenia; WO 99/56753

T1 sequence (P27487 39-766 limits assumed, species assumed): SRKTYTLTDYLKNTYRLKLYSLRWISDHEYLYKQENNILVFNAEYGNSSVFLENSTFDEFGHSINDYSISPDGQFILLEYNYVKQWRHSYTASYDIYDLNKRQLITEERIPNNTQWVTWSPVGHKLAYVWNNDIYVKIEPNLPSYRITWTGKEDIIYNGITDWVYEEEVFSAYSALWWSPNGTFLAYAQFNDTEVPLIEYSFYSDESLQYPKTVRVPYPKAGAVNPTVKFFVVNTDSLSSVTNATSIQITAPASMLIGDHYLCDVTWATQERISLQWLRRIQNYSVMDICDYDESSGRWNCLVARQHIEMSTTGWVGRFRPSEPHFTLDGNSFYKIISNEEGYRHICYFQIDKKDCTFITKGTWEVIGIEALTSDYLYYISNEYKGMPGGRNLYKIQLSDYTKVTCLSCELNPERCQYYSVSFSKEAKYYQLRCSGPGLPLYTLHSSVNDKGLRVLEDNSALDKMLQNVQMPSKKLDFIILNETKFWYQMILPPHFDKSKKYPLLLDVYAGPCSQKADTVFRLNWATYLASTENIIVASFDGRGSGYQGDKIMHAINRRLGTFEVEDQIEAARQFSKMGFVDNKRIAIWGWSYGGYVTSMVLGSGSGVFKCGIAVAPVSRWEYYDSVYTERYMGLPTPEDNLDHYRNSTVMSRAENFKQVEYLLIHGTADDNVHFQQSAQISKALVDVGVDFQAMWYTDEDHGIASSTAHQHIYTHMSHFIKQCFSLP

For `CC(C)N1CCC(c2ccccc2)(c2ccccc2)CC1` [Prodipine, Pro-Pro-diphenyl-phosphonate], the cardiac allograft survival (cardiac allograft) is given as “double cardiac allograft survival in rats from day 7 to day 14”.
In the case of diprotin A, the “effect on degradation of GRF to GRF[3-44]” value (DPP-IV) is given as “prevented”.
In the case of `CC(C)[C@H](N)C(=O)N1CCC[C@H]1B(O)O` [Val-Boro-Pro], the effect on hematopoiesis (hematopoiesis) is given as “stimulated hematopoiesis”.
